1 compound from patent publication US9694027B2, “Pyrazole derivative and use thereof for medical purposes” (KISSEI PHARMACEUTICAL CO. LTD., priority 2012, dated 2017) can be followed below.

In this experiment the test system is rat model of low-fiber diet-induced constipation. Put plainly: Rat model of low-fiber diet-induced constipation (Example 2). The following applies: for Fecal weight within 24 hours after the administration: followed by mixed carbohydrate, n=4, Control group 1 0.53, Normal feed group 8.33. How it is done: Compound 2 was weighed and was dissolved in distilled water at preparation concentrations of 3, 10 and 30 mg/mL as the free drug to prepare test compounds.
0.5% methylcellulose (0.5% MC) was used as a vehicle for preparation of lubiprostone. Lubiprostone was weighed and was suspended in 0.5% MC at preparation concentrations of 1, 3 and 10 mg/mL to prepare control substances.
Magnesium sulfate (MgSO4) (Wako pure chemical) was weighed and was dissolved in distilled water at a preparation concentrations of 200 mg/mL to prepare a positive control substance.
A soluble starch, sucrose and lactose monohydrate were weighed at a rate of 6:3:1 and were dissolved in distilled water which was approximately 80% of the amounts of preparation on heating, and then the mixture was added with distilled water to prepare 0.4 g/mL solution of mixed carbohydrate.
A low-fiber diet was prepared based on the literature (Kakino et al. BMC Complementary and Alternative Medicine 2010, 10: 68).
Rats were fed on the low-fiber diet for 1-2 weeks to induce constipation.
Compound 2 (3 mg/kg, 10 mg/kg or 30 mg/kg as free drug), lubiprostone (1 mg/kg, 3 mg/kg or 10 mg/kg), MgSO4 (2000 mg/kg) or a vehicle (distilled water: Control group 1, 0.5% MC: Control group 2) was administered orally at around 9 a.m. using a 1 mL glass syringe and a stomach tube. Then, 0.4 g/mL solution of mixed carbohydrate was administered orally at 2 mL/body to Control group 1 and the groups administered with Compound 2. Distilled water was administered to the normal feed group.
The sum of the fecal weights at the collection times was set as the fecal weight at 24 hours after the administration.
The statistical analysis was made by testing the uniformity of variance using Bartlett's method, and multiple comparison between Control group 1 and the group administered with Compound 2 or Control group 2 and the group administered with lubiprostone was made using Dunnett's method when variance was uniform respectively, and multiple comparison was made using Steel's method when variance was not uniform. In each case, significance level<5% was considered as significant difference.

Turning to `Cc1cc(OCCCNCC(C)(C)C(N)=O)ccc1Cc1c(O[C@@H]2O[C@H](CO)[C@@H](O)[C@H](O)[C@H]2O)n[nH]c1C(C)C.Cc1cc(OCCCNCC(C)(C)C(N)=O)ccc1Cc1c(O[C@@H]2O[C@H](CO)[C@@H](O)[C@H](O)[C@H]2O)n[nH]c1C(C)C.O=C(O)CCCCCCCCC(=O)O` [Compound 2, bis[3-(3-{4-[3-(β-D-glucopyranosyloxy)-5-isopropyl-1H-pyrazol-4-ylmethyl]-3-methylphenoxy}propylamino)-2,2-dimethylpropionamide]monosebacate], the “Fecal weight within 24 hours after the administration” value came out at 1.20 g (3 mg/kg as free drug oral), 4.20 g (10 mg/kg as free drug oral) and 4.93 g (30 mg/kg as free drug oral). Under “10 mg/kg or more, versus Control group 1, significance level <5%”, the “Fecal weight during 24 hours versus Control group” value was “significantly higher than in each Control group”. Further, the “Dose dependence of fecal weight during 24 hours after the administration” value (oral) was “dose-dependently increased”.
